Converted amounts (≈) assume the structure as drawn. “Also recorded” adds a separate entry of the source.
Legend:
[1] = target: T1, rA1 adenosine receptor (Rattus norvegicus, UniProt P25099); experiment: Binding affinity at rA1 adenosine receptor
T1 sequence (P25099 1-326): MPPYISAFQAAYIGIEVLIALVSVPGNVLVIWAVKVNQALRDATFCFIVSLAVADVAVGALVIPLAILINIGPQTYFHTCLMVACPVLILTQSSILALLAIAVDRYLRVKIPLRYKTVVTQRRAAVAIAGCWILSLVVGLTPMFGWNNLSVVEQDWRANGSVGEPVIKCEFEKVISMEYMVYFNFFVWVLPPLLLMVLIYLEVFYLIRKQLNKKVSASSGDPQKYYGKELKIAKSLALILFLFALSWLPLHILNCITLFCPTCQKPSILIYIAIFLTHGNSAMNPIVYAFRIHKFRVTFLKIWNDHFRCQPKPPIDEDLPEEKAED

[2] = tested on: human melanoma A375 cell line; experiment: MTT growth inhibitory assay, A375; type: cell-based
Protocol: (§5) One of the growth inhibitory assays is the MTT assay. Cells (1000-1500 cells/well) are seeded in a 96-well micro culture plate in a total volume of 100 μl/well. After overnight incubation in a humidified incubator at 37° C. with 5% CO2-95% air, chemotherapeutic drug solutions diluted with culture medium at various concentrations are added in the amount of 100 μl to each well. The plates are placed in a humidified incubator at 37° C. with 5% CO2-95% air for 7-10 days. The plates are then centrifuged briefly and 100 μl of the growth medium is removed. Cell cultures are incubated with 50 μl of MTT [3-(4,5-dimethylthiazol-2-yl)-2,5-diphenyl-tetrazolium bromide] reagent (1 mg/ml in Dulbecco's phosphate-buffered saline) for 4 hr at 37° C. The resultant purple formazan precipitate is solubilized with 200 μl of 0.04 N HCl in isopropanol. Absorbance is measured at a wavelength of 595 nm and at a reference wavelength of 655 nm using a Bio-Rad Model 3550 Microplate Reader. Preferably, all tests are run in duplicate for each dose level.
(§6) The EZED50 computer program estimates the concentration of agent that inhibits cell growth by 50% as compared to the control cells. This is termed the IC50 and is determined by curve fitting test data using the following four logistic equation. [formula]
(§7) Inhibitory assay testing is also used to determine enhanced therapeutic effects from combining A3 receptor antagonists with other tumor inhibiting agents. The inhibitory cell growth assays are run with and without selected concentrations of A3 receptor antagonists. An enhanced therapeutic effect is present when the IC50 of the tumor inhibiting agent is lower with the A3 receptor antagonist.
(§8) Quantitatively, the enhancement factor (EF) is calculated by dividing the IC50 value of the tumor inhibiting agent for a tumor cell line by the IC50 value of the agent with A3 receptor antagonist for the same cell line: [formula]

[3] = tested on: human colon carcinoma HT29 cell line; experiment: MTT growth inhibitory assay, HT29; type: cell-based
Protocol: as §5, §6, §7, §8

[4] = tested on: human pancreatic cancer Panc-1; experiment: MTT growth inhibitory assay, Panc-1; type: cell-based
Protocol: as §5, §6, §7, §8

[5] = tested on: human lung carcinoma SKMES; experiment: MTT growth inhibitory assay, SKMES; type: cell-based
Protocol: as §5, §6, §7, §8

[6] = tested on: A375 melanoma cells; experiment: Colony formation assay of A375 cells; type: cell-based, human
Protocol: FIG. 2 illustrates colony formation assay of A375 cells. Cells were treated with different drugs and colonies were counted after 7 days. The values represent the mean ±SEM of four independent experiments. D=DMSO (control); T=paclitaxel, 0.75 ng/ml; M=MRE 3008F20, 10 μM; C=CI-IB-MECA, 10 μM; TM=paclitaxel plus MRE 3008F20; TC=paclitaxel plus CI-IB-MECA treated cells. *P<0.01 TM versus T. Analysis was by ANOVA followed by Dunnett's test.;
Control plates received the same volume of DMSO alone. After 7 days of growth at 37° C. in humidified atmosphere containing 5% CO2, the cells were fixed with absolute methanol for 5′ and stained with 1/10 Giemsa/phosphate-buffered saline (PBS) staining solution for 10 minutes. Staining solution was removed and colonies of greater than 30 cells were scored as survivors. For each treatment, six individual wells were scored.
Colony formation assay experiments were performed on A375 melanoma cells treated with increasing concentration of paclitaxel (0.25-75 ng/ml). A3 stimulation is achieved with the selective agonist CI-IB-MECA while A3 blockade is obtained with the selective antagonist MRE 3008F20. […] (FIG. 2)

[7] = tested on: A375 cells; experiment: Flow cytometry (PI) G2/M accumulation and sub-G1 apoptosis, A375; type: cell-based, human
Protocol: (§1) A375 and NCTC2544 adherent cells were trypsinized, mixed with floating cells, washed with PBS and permeabilised in 70% (vol/vol) ethanol/PBS solution at 4° C. for at least 24 hours. Jurkat, HeL023 and PBMC cells were centrifuged for 10 minutes at 1000×g. The cell pellet was then resuspended and permeabilised in 70% (vol/vol) ethanol/PBS solution at 4° C. for at least 24 hours. The cells were washed with PBS and the DNA was stained with a PBS solution, containing 20 μg/ml of propidium iodide and 100 μg/ml of RNAse, at room temperature for 30 minutes. Cells were analysed by FACScan (Becton-Dickinson) and the content of DNA was evaluated by the Cell-LISYS program (Becton-Dickinson). Cell distribution among cell cycle phases and apoptotic cells was evaluated as previously described (Secchiero et al., 2001). Briefly, the cell cycle distribution is shown as the percentage of cells containing 2n (G1 phase), 4n (G2 and M phases), 4n>x>2n. DNA amount (S phase) judged by propidium iodide staining. The apoptotic population is the percentage of cells with DNA content lower than 2n.
Cell proliferation and apoptosis are quantified by flow cytometer analysis after propidium-iodide (PI) DNA staining.

[8] = tested on: HeL023 cells; experiment: Flow cytometry (PI) G2/M accumulation and sub-G1 apoptosis, HeL023; type: cell-based, human; conditions: MRE3008F20 10 μM
Protocol: as §1
(§2) To verify the role of A3 receptor antagonists on paclitaxel and vindesine mediated alteration of cell proliferation and apoptosis, testing was performed with additional cell lines. […] Experimental conditions are similar to those for the A375 cell testing.

[9] = tested on: Jurkat cells; experiment: Flow cytometry (PI) G2/M accumulation and sub-G1 apoptosis, Jurkat; type: cell-based, human; conditions: MRE3008F20 10 μM
Protocol: as §1, §2

[10] = tested on: NCTC2544 cells; experiment: Flow cytometry (PI) G2/M accumulation and sub-G1 apoptosis, NCTC2544; type: cell-based, human; conditions: NCTC 2544; MRE3008F20 10 μM
Protocol: as §1, §2

[11] = target: T2, P-gp drug efflux activity in HeL023 cells (Homo sapiens, UniProt P08183); experiment: Rhodamine 123 efflux assay, HeL023 cells; type: cell-based; conditions: Rh123 efflux, concentrations of Table 11 (MRE3008F20 10 μM)
T2 construct: nearly all (100±1%) the cells expressing high level of functional P-gp; endogenous in cells; host or cells: HeL023 human erythroleukemia cells
Protocol: (§3) 5×10^5 cells from each subline were loaded with 50 ng/ml of rhodamine 123 for 30 minutes at 37° C. in medium. The cells were washed and resuspended in dye-staining agent free medium for 3 hours at 37° C. to allow rhodamine 123 efflux. The cells were then washed twice and the fluorescence of intracellular rhodamine 123 were analysed with Flow cytometer (residual fluorescence FRES). The fluorescence was compared with loaded cells maintained at 4° C. to prevent drug export (maximal fluorescence FMAX). […] Cells from each subline that were not being exposed to rhodamine 123 were used as negative controls.
(§4) Rhodamine 123 (Rh123) retention, a P-gp functional assay, was studied in all cell lines. This assay was performed by incubating cells with Rh123 and determining Rh123 accumulation by measuring its fluorescence. The maximum load of Rh123 (FMAX) was quantified at the end of treatment harvesting the cells and storing them at 4° C. to prevent any active Rh123 efflux . The P-gp drug efflux was allowed incubating Rh123-loaded cells in fresh new medium Rh123-free for 3 hours at 37° C. After this incubation, residual fluorescence (FRES) was measured and compared to FMAX.

[12] = target: T3, P-gp drug efflux activity in A375 cells (Homo sapiens, UniProt P08183); experiment: Rhodamine 123 efflux assay, A375 cells; type: cell-based
T3 construct: endogenous in cells; host or cells: A375 human melanoma cells (ATCC)
Protocol: as §3, §4

[13] = tested on: A375 cells; experiment: Metabolic (MEK/ERK/p38MAPK) inhibitor signalling study by flow cytometry, A375; type: cell-based, human; conditions: U0126 30 μM; for prevention of MRE3008F20-induced accumulation in G2/M: MRE3008F20 10 μM

T2 sequence (P08183 whole entry): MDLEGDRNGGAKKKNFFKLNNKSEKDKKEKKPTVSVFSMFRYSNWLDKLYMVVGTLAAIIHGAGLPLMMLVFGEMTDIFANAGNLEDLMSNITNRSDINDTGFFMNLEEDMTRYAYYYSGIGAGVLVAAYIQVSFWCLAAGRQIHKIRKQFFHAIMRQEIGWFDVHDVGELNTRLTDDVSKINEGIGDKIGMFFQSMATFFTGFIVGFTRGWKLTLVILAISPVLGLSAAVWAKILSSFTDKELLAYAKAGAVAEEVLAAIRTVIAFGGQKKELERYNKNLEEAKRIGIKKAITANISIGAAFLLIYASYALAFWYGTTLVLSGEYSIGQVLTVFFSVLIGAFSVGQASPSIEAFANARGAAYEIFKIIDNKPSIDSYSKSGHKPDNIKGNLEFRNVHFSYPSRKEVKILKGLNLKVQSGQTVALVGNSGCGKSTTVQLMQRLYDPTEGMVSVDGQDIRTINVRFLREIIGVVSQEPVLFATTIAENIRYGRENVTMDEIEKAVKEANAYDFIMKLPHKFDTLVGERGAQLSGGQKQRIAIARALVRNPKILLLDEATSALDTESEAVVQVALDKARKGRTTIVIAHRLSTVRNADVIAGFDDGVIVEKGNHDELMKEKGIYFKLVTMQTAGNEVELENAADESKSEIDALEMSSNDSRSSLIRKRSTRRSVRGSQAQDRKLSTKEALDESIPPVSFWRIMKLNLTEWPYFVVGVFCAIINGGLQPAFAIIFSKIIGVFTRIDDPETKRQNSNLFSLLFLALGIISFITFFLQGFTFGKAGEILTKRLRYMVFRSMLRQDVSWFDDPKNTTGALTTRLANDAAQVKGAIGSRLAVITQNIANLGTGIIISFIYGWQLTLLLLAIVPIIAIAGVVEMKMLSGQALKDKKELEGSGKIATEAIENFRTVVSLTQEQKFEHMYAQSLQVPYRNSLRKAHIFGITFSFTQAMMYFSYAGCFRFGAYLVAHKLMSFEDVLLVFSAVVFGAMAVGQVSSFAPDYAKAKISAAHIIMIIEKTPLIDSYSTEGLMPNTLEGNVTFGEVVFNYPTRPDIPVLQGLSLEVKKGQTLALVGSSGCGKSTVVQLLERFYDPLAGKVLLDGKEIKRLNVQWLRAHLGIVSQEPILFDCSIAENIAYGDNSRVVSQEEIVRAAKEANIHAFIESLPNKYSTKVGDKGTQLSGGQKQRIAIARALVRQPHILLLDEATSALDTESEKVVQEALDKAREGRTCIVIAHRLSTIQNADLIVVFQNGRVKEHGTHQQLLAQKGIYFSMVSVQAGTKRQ
T3 sequence (P08183 whole entry): as above

Compound: CCCn1cc2c(nc(NC(=O)Nc3ccc(OC)cc3)n3nc(-c4ccco4)nc23)n1 [MRE3008F20]
- Ki [1]: > 10000 nM
- Enhancement Factor for docetaxel ([2]; A375, A3 antagonist 1 μg/ml): 63.3
- Enhancement Factor for paclitaxel ([2]; A375, A3 antagonist 1 μg/ml): 7.1
- Enhancement Factor for docetaxel ([2]; A375, A3 antagonist 3 μg/ml): 6.9
- Enhancement Factor for paclitaxel ([2]; A375, A3 antagonist 3 μg/ml): 6.4
- Enhancement Factor for docetaxel ([2]; A375, A3 antagonist 10 μg/ml): 5.3
- Enhancement Factor for paclitaxel ([2]; A375, A3 antagonist 10 μg/ml, paclitaxel 0.0001-0.05 μg/ml): 7.1
- enhancement factor for paclitaxel at all three concentrations ([2]; A375, A3 antagonist 1, 3 and 10 μg/ml): 6.4-7.1
- IC50 ([2]; Homo sapiens, A-375, Human Melanoma A375, read-out: IC50 growth inhibition, agent used separately): 91.3 ± 1.5 µg/mL (≈ 211 µM)
- inhibition at 10 µg/mL ([2]; Homo sapiens, A-375, A375, 10 μg/ml, read-out: growth inhibition in the presence of A3 antagonist alone): 30 to 45%
- Enhancement Factor for docetaxel ([3]; HT29, A3 antagonist 1 μg/ml): 15.0
- Enhancement Factor for doxorubicin ([3]; HT29, A3 antagonist 1 μg/ml): 1.6
- Enhancement Factor for irinotecan HCl ([3]; HT29, A3 antagonist 1 μg/ml): 1.8
- Enhancement Factor for paclitaxel ([3]; HT29, A3 antagonist 1 μg/ml): 2.9
- IC50 ([3]; HT-29, Human Colon Carcinoma HT29, read-out: IC50 growth inhibition, agent used separately): 39.4 ± 7.7 µg/mL (≈ 91.1 µM)
- IC50 ([4]; Human Pancreatic Cancer Panc-1, read-out: IC50 growth inhibition, agent used separately): 15.8 ± 13.5 µg/mL (≈ 36.5 µM)
- Enhancement Factor for docetaxel ([4]; Panc-1, A3 antagonist 1 μg/ml): 1.8
- Enhancement Factor for paclitaxel ([4]; Panc-1, A3 antagonist 1 μg/ml): 1.9
- IC50 ([5]; Human Lung Carcinoma SKMES, read-out: IC50 growth inhibition, agent used separately): 19 ± 1.2 µg/mL (≈ 43.9 µM)
- Enhancement Factor for docetaxel ([5]; SKMES, A3 antagonist 1 μg/ml): 3.6
- Enhancement Factor for irinotecan HCL ([5]; SKMES, A3 antagonist 1 μg/ml): 2.1
- Enhancement Factor for paclitaxel ([5]; SKMES, A3 antagonist 1 μg/ml): 4.1
- Enhancement Factor for vinblastine ([5]; SKMES, A3 antagonist 1 μg/ml): 1.2
- colony formation, % of DMSO control ([6]; 10 μM alone, 7 days): 59%
- colony formation predicted by geometrical combination ([6]; MRE 3008F20 10 μM plus paclitaxel 0.75 ng/ml): 38%
- paclitaxel ECMAX with A3 antagonist ([7]; A375, MRE3008F20 10 μM): 3.04 ± 0.32 ng/mL
- vindesine ECMAX with A3 antagonist ([7]; A375, MRE3008F20 10 μM): 1.66 ± 0.20 nM
- EC50 ([7]; Homo sapiens, A-375, read-out: SEC50 (dose inducing 50% of the enhancing activity to vindesine)): 550 ± 60 nM
- paclitaxel ECMAX with A3 antagonist [8]: 3.19 ± 0.30 ng/mL
- vindesine ECMAX with A3 antagonist [8]: 1.05 ± 0.09 nM
- paclitaxel ECMAX with A3 antagonist [9]: 2.29 ± 0.31 ng/mL
- paclitaxel ECMAX with A3 antagonist [10]: 2.55 ± 0.24 ng/mL
- vindesine ECMAX with A3 antagonist [10]: 1.34 ± 0.15 nM
- inhibition of P-gp activity (in words) [11]: near total P-gp inhibition; also recorded: strong inhibitors of P-gp activity
- blockade of P-gp mediated Rh123 transport (in words) ([12]; 10 μM, FRES comparable to FMAX): completely blockade of P-gp mediated Rh123 transport

Compound: N#CC(=C(/N)Sc1ccccc1N)/C(C#N)=C(\N)Sc1ccccc1N [U0126]
- effect on MRE 3008F20 blockade of P-gp (in words) ([12]; U0126 30 μM for 30 minutes, then MRE3008F20 10 μM): failed to prevent MRE 3008F20 blockade of P-gp
- effect on G2/M accumulation rate of paclitaxel or vindesine alone (in words) ([13]; PD98059 20 μM, SB203580 1 μM): did not alter
- prevention of MRE3008F20-induced accumulation in G2/M ([13]; in presence of paclitaxel): 23±5%
- prevention of MRE3008F20-induced accumulation in G2/M ([13]; in presence of vindesine 1 nM): 48±5%
- reduction of apoptosis induced by paclitaxel ([13]; paclitaxel 25 ng/ml, PD98059 20 μM, SB203580 1 μM): 73±10%

From patent US20040067932A1 (priority 2002, published 2004)
